Measurements from patent USRE46511E1, “Fused pyrimidine derivatives for inhibition of tyrosine kinase activity” (HANMI SCIENCE CO., LTD., priority 2010, dated 2017).

Legend:
[1] = tested on: HCC827 (EGFR DelE746_A750); test: Inhibition test for growth of cancer cell expressing EGFR (SRB), HCC827; assay type: cell-based; conditions: Homo sapiens, HCC827, 72 h, HCC827 cells, 72 hours, SRB; read-out: GI50 HCC827 EGFR DelE746_A750;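 also: cells in 96-well plates exposed to tenfold serial dilutions from 100 µM, fixed with trichloroacetic acid, SRB-stained, absorbance read at 540 nm, DMSO under 1%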
[2] = tested on: NCI-H1975 (EGFR L858R/T790M); test: Inhibition test for growth of cancer cell expressing EGFR (MTS), NCI-H1975; assay type: cell-based; conditions: Homo sapiens; NCI-H1975 cells, 48 hours, MTS; read-out: GI50 NCI-H1975 EGFR L858R/T790M

SMILES | GI50 [1] [nM] | GI50 [2] [nM]
C=CC(=O)Nc1cccc(Oc2nc(Nc3ccc(S(=O)(=O)NC4CC4)cc3)nc3ccsc23)c1 [Example 71] | 50 to 100 | < 50
C=CC(=O)Nc1cccc(Oc2nc(Nc3ccc(S(C)(=O)=O)cc3)nc3ccsc23)c1 [Example 69] | 50 to 100 | < 50
C=CC(=O)Nc1cccc(Oc2nc(Nc3ccc(N4CCN(CC(F)F)CC4)cc3)nc3ccsc23)c1 [Example 15] | < 50 | < 50
C=CC(=O)Nc1cccc(Nc2nc(Nc3ccc(C4CCN(C)CC4)cc3)nc3ccsc23)c1 [Example 209] | < 50 | < 50
C=CC(=O)Nc1cccc(Oc2nc(Nc3ccc(CN4CCN(C5CCN(C)CC5)CC4)c(Cl)c3)nc3ccsc23)c1 [Example 202] | 50 to 100 | < 50
C=CC(=O)Nc1cccc(Oc2nc(Nc3ccc(O)cc3)nc3ccsc23)c1 [Example 60] | 100 to 1000 | 100 to 1000
C=CC(=O)Nc1cccc(Oc2nc(Nc3ccc(N4CCC(N5CCOCC5)CC4)c(Cl)c3)nc3ccsc23)c1 [Example 139] | < 50 | < 50
C=CC(=O)Nc1cccc(Oc2nc(Nc3ccc(N4CCC(N(C)C)CC4)cc3)nc3ccsc23)c1 [Example 38] | < 50 | < 50
C=CC(=O)Nc1cccc(Oc2nc(Nc3ccc(N4CCC(n5ccnc5)C4)cc3)nc3ccsc23)c1 (stereo not shown) [Example 35] | < 50 | < 50
C=CC(=O)Nc1cccc(Oc2nc(Nc3ccc(NC(=O)N4CCN(C)CC4)c(F)c3)nc3ccsc23)c1 [Example 201] | < 50 | 50 to 100
C=CC(=O)Nc1cccc(Oc2nc(Nc3ccc(OCCN(C)C)c(F)c3)nc3ccsc23)c1 [Example 132] | < 50 | < 50
C=CC(=O)Nc1cccc(Oc2nc(Nc3ccc(N4CCC(N5CCOCC5)CC4)cc3)nc3ccsc23)c1 [Example 49] | < 50 | < 50
C=CC(=O)Nc1cccc(Oc2nc(Nc3ccc(OCCOC)cc3)nc3ccsc23)c1 [Example 61] | 50 to 100 | < 50
C=CC(=O)Nc1cccc(Oc2nc(Nc3ccc(CN(C)C)cc3C)nc3ccsc23)c1 [Example 205] | < 50 | < 50
C=CC(=O)Nc1cccc(Oc2nc(Nc3ccc(C(=O)OCCCN(C)C)cc3)nc3ccsc23)c1 [Example 93] | 50 to 100 | 50 to 100
C=CC(=O)Nc1cccc(Nc2nc(Nc3ccc(N4CCN(C(C)C)CC4)cc3)nc3ccsc23)c1 [Example 208] | < 50 | < 50
C=CC(=O)Nc1cccc(Oc2nc(Nc3ccc(OCCN4CCN(C)CC4)c(F)c3)nc3ccsc23)c1 [Example 134] | < 50 | < 50
C=CC(=O)Nc1cccc(Oc2nc(Nc3ccc(N4CCN(S(=O)(=O)N(C)C)CC4)cc3)nc3ccsc23)c1 [Example 25] | 50 to 100 | 50 to 100
C=CC(=O)Nc1cccc(Oc2nc(Nc3ccc(CN4CCN(C)CC4)c(F)c3)nc3ccsc23)c1 [Example 197] | < 50 | < 50
C=CC(=O)Nc1cccc(Nc2nc(Nc3ccc(CCN4CCN(C)CC4)cc3)nc3ccsc23)c1 [Example 214] | 50 to 100 | < 50
C=CC(=O)Nc1cccc(Oc2nc(Nc3ccc(C(=O)NC4CCN(C)CC4)c(OC)c3)nc3ccsc23)c1 [Example 118] | < 50 | 50 to 100

SMILES | GI50 [1] [nM] | GI50 [2] [nM]
C=CC(=O)Nc1cccc(Nc2nc(Nc3ccc(NC4CCN(C)CC4)c(F)c3)nc3ccsc23)c1 [Example 217] | < 50 | 50 to 100
C=CC(=O)Nc1cccc(Oc2nc(Nc3ccc(N4CCC(C(=O)N(C)C)CC4)cc3)nc3ccsc23)c1 [Example 45] | < 50 | < 50
C=CC(=O)Nc1cccc(Oc2nc(Nc3ccc(C(=O)N(C)C)c(Cl)c3)nc3ccsc23)c1 [Example 143] | 50 to 100 | < 50
C=CC(=O)Nc1cccc(Oc2nc(Nc3ccc(CN4CCC(N(C)C)CC4)c(F)c3)nc3ccsc23)c1 [Example 196] | < 50 | 50 to 100
C=CC(=O)Nc1cccc(Oc2nc(Nc3ccc(N4CCN(C(=O)CN(C)C)CC4)c(F)c3)nc3ccsc23)c1 [Example 119] | < 50 | < 50
C=CC(=O)Nc1cccc(Oc2nc(Nc3ccc(NC(=O)CCN4CCCC4)cc3)nc3ccsc23)c1 [Example 92] | < 50 | < 50
C=CC(=O)Nc1cccc(Oc2nc(Nc3ccc(OC4CCN(C)CC4)c(F)c3)nc3ccsc23)c1 [Example 136] | < 50 | < 50
C=CC(=O)Nc1cccc(Oc2nc(Nc3ccc(OCCN4CCOCC4)c(OC)c3)nc3ccsc23)c1 [Example 116] | < 50 | < 50
C=CC(=O)Nc1cccc(Nc2nc(Nc3ccc(C4CCN(C)CC4)c(F)c3)nc3ccsc23)c1 [Example 216] | < 50 | < 50
C=CC(=O)Nc1cccc(Oc2nc(Nc3ccc(N4CC(C)N(C)C(C)C4)cc3)nc3ccsc23)c1 (stereo not shown) [Example 27] | < 50 | < 50
C=CC(=O)Nc1cccc(Oc2nc(Nc3ccc(OCCOC)c(F)c3)nc3ccsc23)c1 [Example 131] | 50 to 100 | < 50
C=CC(=O)Nc1cccc(Oc2nc(Nc3ccc(C(=O)NC)cc3)nc3ccsc23)c1 [Example 78] | 50 to 100 | 50 to 100
C=CC(=O)Nc1cccc(Oc2nc(Nc3ccc(N4CCN(CC(F)(F)F)CC4)cc3)nc3ccsc23)c1 [Example 16] | 50 to 100 | < 50
C=CC(=O)Nc1cccc(Sc2nc(Nc3ccc(N4CCOCC4)c(F)c3)nc3ccsc23)c1 [Example 224] | < 50 | < 50
C=CC(=O)Nc1cccc(Oc2nc(Nc3ccc(N4CCN(CCO)CC4)cc3)nc3ccsc23)c1 [Example 18] | < 50 | < 50
C=CC(=O)Nc1cccc(Oc2nc(Nc3ccc(NC(=O)N4CCN(C)CC4)cc3)nc3ccsc23)c1 [Example 172] | 50 to 100 | < 50
C=CC(=O)Nc1cccc(Oc2nc(Nc3ccc(N4CC(C)OC(C)C4)c(F)c3)nc3ccsc23)c1 (stereo not shown) [Example 123] | 50 to 100 | 50 to 100
C=CC(=O)Nc1cccc(Oc2nc(Nc3ccc(-n4ccnc4)cc3)nc3ccsc23)c1 [Example 56] | 50 to 100 | < 50
C=CC(=O)Nc1cccc(Sc2nc(Nc3ccc(C4CCN(C)CC4)c(F)c3)nc3ccsc23)c1 [Example 225] | < 50 | < 50
C=CC(=O)Nc1cccc(Oc2nc(Nc3ccc(CCO)cc3)nc3ccsc23)c1 [Example 190] | < 50 | < 50
C=CC(=O)Nc1cccc(Oc2nc(Nc3ccc(N4CCN(C(C)(C)C)CC4)cc3)nc3ccsc23)c1 [Example 12] | < 50 | < 50

SMILES | GI50 [1] [nM] | GI50 [2] [nM]
C=CC(=O)Nc1cccc(Oc2nc(Nc3ccc(C4CCN(C)CC4)cc3OC)nc3ccsc23)c1 [Example 114] | 50 to 100 | < 50
C=CC(=O)Nc1cccc(Oc2nc(Nc3ccc(C(=O)N4CCN(S(=O)(=O)CC)CC4)c(Cl)c3)nc3ccsc23)c1 [Example 144] | < 50 | 50 to 100
C=CC(=O)Nc1cccc(Oc2nc(Nc3ccc(N4CCC(N5CCOCC5)CC4)c(F)c3)nc3ccsc23)c1 [Example 126] | < 50 | < 50
C=CC(=O)Nc1cccc(Oc2nc(Nc3ccc(N4CCN(CCF)CC4)cc3)nc3ccsc23)c1 [Example 14] | < 50 | 50 to 100
C=CC(=O)Nc1cccc(Nc2nc(Nc3ccc(OCCCN(C)C)cc3)nc3ccsc23)c1 [Example 212] | 50 to 100 | 50 to 100
C=CC(=O)Nc1cccc(Oc2nc(Nc3ccc(N4CCN(C(=O)N5CCOCC5)CC4)cc3)nc3ccsc23)c1 [Example 22] | < 50 | 50 to 100
C=CC(=O)Nc1cccc(Nc2nc(Nc3ccc(C4CCCN(C)C4)cc3)nc3ccsc23)c1 (stereo not shown) [Example 210] | < 50 | < 50
C=CC(=O)Nc1cccc(Oc2nc(Nc3ccc4c(c3)CCCC(=O)N4C)nc3ccsc23)c1 [Example 108] | 50 to 100 | 50 to 100
C=CC(=O)Nc1cccc(Nc2nc(Nc3ccc(CCN(C)C)cc3)nc3ccsc23)c1 [Example 213] | 50 to 100 | < 50
C=CC(=O)Nc1cccc(Oc2nc(Nc3ccc4c(c3)OCCO4)nc3ccsc23)c1 [Example 106] | 50 to 100 | < 50
C=CC(=O)Nc1cccc(Oc2nc(Nc3ccc(C4(N)CC4)cc3)nc3ccsc23)c1 [Example 160] | < 50 | < 50
C=CC(=O)Nc1cccc(Oc2nc(Nc3ccc(N4CCN(S(=O)(=O)CC)CC4)c(F)c3)nc3ccsc23)c1 [Example 121] | 50 to 100 | < 50
C=CC(=O)Nc1cccc(Nc2nc(Nc3ccc(OCCN(C)C)cc3)nc3ccsc23)c1 [Example 211] | < 50 | < 50
C=CC(=O)Nc1cccc(Oc2nc(Nc3ccc(C4CCN(C)CC4)c(F)c3)nc3ccoc23)c1 [Example 235] | < 50 | < 50
C=CC(=O)Nc1cccc(Oc2nc(Nc3ccc(N4CCN(CCOC)CC4)cc3)nc3ccsc23)c1 [Example 17] | < 50 | < 50
C=CC(=O)Nc1cccc(Oc2nc(Nc3ccc(N4CCC(N5CCCC5)CC4)c(Cl)c3)nc3ccsc23)c1 [Example 138] | < 50 | < 50
C=CC(=O)Nc1cccc(Oc2nc(Nc3ccc(C(=O)NCCN4CCCC4)cc3OC)nc3ccsc23)c1 [Example 117] | < 50 | 50 to 100
C=CC(=O)Nc1cccc(Oc2nc(Nc3ccc(CN4CCC4)cc3)nc3ccsc23)c1 [Example 175] | < 50 | < 50
C=CC(=O)Nc1cccc(Oc2nc(Nc3ccc(N4CCC(N5CCCC5)CC4)c(F)c3)nc3ccsc23)c1 [Example 124] | < 50 | < 50
C=CC(=O)Nc1cccc(Oc2nc(Nc3ccc(CCN(C)C)cc3)nc3ccsc23)c1 [Example 191] | < 50 | < 50
